Test results reported in patent US10945992B1, “Dosage forms of rofecoxib and related methods” (Tremeau Pharmaceuticals, Inc., priority 2019, dated 2021).
Read-outs that look alike come from different tables or passages of the source.

Assay: TRM-201-PK-102 single-dose four-period crossover pharmacokinetic study, fasted healthy subjects
Format: in vivo, human
Conditions: human, plasma, oral
Method: A Single-Dose, Open-Label, Phase 1, Four-Period Crossover Pharmacokinetic Study of TRM-201 (Rofecoxib) 12.5 mg, 17.5 mg, 20 mg and 25 mg Administered to Healthy Subjects in a Fasting State, with Comparison to Historical Pharmacokinetic Parameters of Previously Marketed Rofecoxib (“TRM-201-PK-102” or “102 PK Study”)
This was a single-center, open-label four-period crossover PK study of TRM-201. The study included 24 subjects who received TRM-201 as a single dose of 12.5 mg, 17.5 mg, 20 mg and 25 mg to assess the PK of TRM-201 in healthy volunteers under fasted conditions. Subjects were randomized to one of four treatment sequences. The PK data from the current study along with the data from the TRM-201-PK-101 study (Example 4) was used to compare to historical pharmacokinetic parameters of previously marketed rofecoxib, all in a fasted state.
In each of the four dosing periods, subjects fasted overnight for at least 10 hours before study drug dosing. While fasting, subjects had nothing to eat and only water to drink. Water was permitted as desired, except for the period between 1 hour before and 1 hour after study drug dosing (excepting as permitted for dosing). After the 2-hour PK blood sample, subjects were allowed one 250-mL cup of clear apple juice. After the 4-hour PK blood sample, subjects were served a light lunch. Following the light lunch, subjects received standardized meals according to the clinic's standard procedures that were scheduled at consistent times and at least 15 minutes before or 15 minutes after PK sampling time points. Blood was withdrawn for PK analysis at predefined time points. For each dosing period the last time point was 120 hours after dosing with study drug (Day 6). After the 120 hour PK sample, the EOP procedures was completed, subjects remained in-clinic for the in-between dose period day (Days 7, 14, and 21) and began the next dosing period starting with an overnight fast for at least 10 hours on Day −1 of the subsequent dosing period. Pharmacokinetic and safety endpoints were evaluated.
The study drug, TRM-201, was an immediate-release tablet that contained 12.5 mg rofecoxib, 17.5 mg rofecoxib, 20 mg rofecoxib or 25 mg rofecoxib. The 7.25-mm diameter tablets were off-white, round, and uncoated with no markings. TRM-201 tablets were for oral administration.
For each sample, approximately 3 mL of blood were drawn. The samples were obtained by a straight stick or via an in-dwelling intravenous (IV) catheter in a forearm vein. Additional details for the collection, processing, storage, and shipping of PK samples were provided in the study manual.
Pharmacokinetic samples will be analyzed using a validated assay for rofecoxib in human plasma. Assay results and validation details will be provided in a separate bioanalytical report. The following PK parameters for rofecoxib will be calculated as primary endpoints using standard noncompartmental methods: AUC0-∞ and Cmax. Secondary endpoints include Tmax, and t1/2. Additional PK parameters (e.g., CL/F, and Vd/F) will also be calculated using standard noncompartmental methods.
Individual plasma concentrations for rofecoxib and PK sampling time deviation data will be presented in a data listing. Plasma concentration data will be summarized by time point using the following descriptive statistics: number of subjects, arithmetic mean, SD, coefficient of variation (CV), geometric mean, natural-log-scale SD, geometric CV, median, minimum, and maximum. Individual plasma concentration versus actual time profiles were presented on both linear and semilogarithmic scales. Additionally, arithmetic mean concentration versus scheduled time profiles were presented on linear scales and geometric means on semilogarithmic scales.
The PK parameters of rofecoxib were analyzed based on the actual sampling times. […]

[1] = 12.5 mg, read-out: arithmetic mean plasma concentration
[2] = 12.5 mg, read-out: geometric mean plasma concentration
[3] = 17.5 mg, read-out: geometric mean plasma concentration

CS(=O)(=O)c1ccc(C2=C(c3ccccc3)C(=O)OC2)cc1 [TRM-201, 4-[4-(methylsulfonyl)phenyl]-3-phenyl-2(5H)-furanone]
Cmax (12.5 mg, 102 study, body weight 77.1-90 kg, read-out: arithmetic mean Cmax): 0.127 µg/mL
AUC(0-inf) (12.5 mg, 102 study, body weight 77.1-90 kg, read-out: geometric mean AUC0-∞): 1.69 µg·h/mL
Cmax (12.5 mg, 102 study, body weight 77.1-90 kg, read-out: geometric mean Cmax): 0.125 µg/mL
AUC(0-inf) (12.5 mg, 102 study, non-Hispanic or non-Latino subjects, read-out: arithmetic mean AUC0-∞): 1.82 µg·h/mL
Cmax (12.5 mg, 102 study, non-Hispanic or non-Latino subjects, read-out: arithmetic mean Cmax): 0.146 µg/mL
AUC(0-inf) (12.5 mg, 102 study, non-Hispanic or non-Latino subjects, read-out: geometric mean AUC0-∞): 1.68 µg·h/mL
Cmax (12.5 mg, 102 study, non-Hispanic or non-Latino subjects, read-out: geometric mean Cmax): 0.141 µg/mL
concentration at 15 minutes [1]: 0.00103 µg/mL
concentration at 15 minutes [2]: 0.000529 µg/mL
concentration at 45 minutes [1]: 0.0568 µg/mL
concentration at 45 minutes [2]: 0.0339 µg/mL
AUC(0-inf) (17.5 mg, 102 study only, read-out: arithmetic mean AUC0-∞): 3.29 µg·h/mL
Cmax (17.5 mg, 102 study only, read-out: arithmetic mean Cmax): 0.236 µg/mL
AUC(0-inf) (17.5 mg, 102 study only, read-out: geometric mean AUC0-∞): 3.11 µg·h/mL
Cmax (17.5 mg, 102 study only, read-out: geometric mean Cmax): 0.224 µg/mL
AUC(0-inf) (17.5 mg, 102 study, 18-40 years, read-out: arithmetic mean AUC0-∞): 2.82 µg·h/mL
Cmax (17.5 mg, 102 study, 18-40 years, read-out: arithmetic mean Cmax): 0.237 µg/mL
AUC(0-inf) (17.5 mg, 102 study, 18-40 years, read-out: geometric mean AUC0-∞): 2.75 µg·h/mL
Cmax (17.5 mg, 102 study, 18-40 years, read-out: geometric mean Cmax): 0.229 µg/mL
AUC(0-inf) (17.5 mg, 102 study, 41-52 years, read-out: arithmetic mean AUC0-∞): 3.52 µg·h/mL
Cmax (17.5 mg, 102 study, 41-52 years, read-out: arithmetic mean Cmax): 0.232 µg/mL
AUC(0-inf) (17.5 mg, 102 study, 41-52 years, read-out: geometric mean AUC0-∞): 3.16 µg·h/mL
Cmax (17.5 mg, 102 study, 41-52 years, read-out: geometric mean Cmax): 0.213 µg/mL
AUC(0-inf) (17.5 mg, 102 study, 53-60 years, read-out: arithmetic mean AUC0-∞): 3.51 µg·h/mL
Cmax (17.5 mg, 102 study, 53-60 years, read-out: arithmetic mean Cmax): 0.239 µg/mL
AUC(0-inf) (17.5 mg, 102 study, 53-60 years, read-out: geometric mean AUC0-∞): 3.47 µg·h/mL
Cmax (17.5 mg, 102 study, 53-60 years, read-out: geometric mean Cmax): 0.23 µg/mL
AUC(0-inf) (17.5 mg, 102 study, Black or African-American subjects, read-out: arithmetic mean AUC0-∞): 2.84 µg·h/mL
Cmax (17.5 mg, 102 study, Black or African-American subjects, read-out: arithmetic mean Cmax): 0.217 µg/mL
AUC(0-inf) (17.5 mg, 102 study, Black or African-American subjects, read-out: geometric mean AUC0-∞): 2.8 µg·h/mL
Cmax (17.5 mg, 102 study, Black or African-American subjects, read-out: geometric mean Cmax): 0.211 µg/mL
AUC(0-inf) (17.5 mg, 102 study, Hispanic or Latino subjects, read-out: arithmetic mean AUC0-∞): 3.52 µg·h/mL
Cmax (17.5 mg, 102 study, Hispanic or Latino subjects, read-out: arithmetic mean Cmax): 0.258 µg/mL
AUC(0-inf) (17.5 mg, 102 study, Hispanic or Latino subjects, read-out: geometric mean AUC0-∞): 3.33 µg·h/mL
Cmax (17.5 mg, 102 study, Hispanic or Latino subjects, read-out: geometric mean Cmax): 0.243 µg/mL
AUC(0-inf) (17.5 mg, 102 study, White subjects, read-out: arithmetic mean AUC0-∞): 3.4 µg·h/mL
Cmax (17.5 mg, 102 study, White subjects, read-out: arithmetic mean Cmax): 0.241 µg/mL
AUC(0-inf) (17.5 mg, 102 study, White subjects, read-out: geometric mean AUC0-∞): 3.2 µg·h/mL
Cmax (17.5 mg, 102 study, White subjects, read-out: geometric mean Cmax): 0.228 µg/mL
AUC(0-inf) (17.5 mg, 102 study, body weight 47-70 kg, read-out: arithmetic mean AUC0-∞): 3.18 µg·h/mL
Cmax (17.5 mg, 102 study, body weight 47-70 kg, read-out: arithmetic mean Cmax): 0.261 µg/mL
AUC(0-inf) (17.5 mg, 102 study, body weight 47-70 kg, read-out: geometric mean AUC0-∞): 2.93 µg·h/mL
Cmax (17.5 mg, 102 study, body weight 47-70 kg, read-out: geometric mean Cmax): 0.242 µg/mL
AUC(0-inf) (17.5 mg, 102 study, body weight 70.1-77 kg, read-out: arithmetic mean AUC0-∞): 3.89 µg·h/mL
Cmax (17.5 mg, 102 study, body weight 70.1-77 kg, read-out: arithmetic mean Cmax): 0.254 µg/mL
AUC(0-inf) (17.5 mg, 102 study, body weight 70.1-77 kg, read-out: geometric mean AUC0-∞): 3.73 µg·h/mL
Cmax (17.5 mg, 102 study, body weight 70.1-77 kg, read-out: geometric mean Cmax): 0.246 µg/mL
AUC(0-inf) (17.5 mg, 102 study, body weight 77.1-90 kg, read-out: arithmetic mean AUC0-∞): 2.91 µg·h/mL
Cmax (17.5 mg, 102 study, body weight 77.1-90 kg, read-out: arithmetic mean Cmax): 0.2 µg/mL
AUC(0-inf) (17.5 mg, 102 study, body weight 77.1-90 kg, read-out: geometric mean AUC0-∞): 2.85 µg·h/mL
Cmax (17.5 mg, 102 study, body weight 77.1-90 kg, read-out: geometric mean Cmax): 0.194 µg/mL
AUC(0-inf) (17.5 mg, 102 study, non-Hispanic or non-Latino subjects, read-out: arithmetic mean AUC0-∞): 3.05 µg·h/mL
Cmax (17.5 mg, 102 study, non-Hispanic or non-Latino subjects, read-out: arithmetic mean Cmax): 0.214 µg/mL
AUC(0-inf) (17.5 mg, 102 study, non-Hispanic or non-Latino subjects, read-out: geometric mean AUC0-∞): 2.91 µg·h/mL
Cmax (17.5 mg, 102 study, non-Hispanic or non-Latino subjects, read-out: geometric mean Cmax): 0.207 µg/mL
concentration at 15 minutes [3]: 0.000669 µg/mL
concentration at 45 minutes [3]: 0.0516 µg/mL
